In the assay the test system is M. tuberculosis H37Rv growth inhibition. Nature of the assay: Confirmatory growth inhibition assay against Mycobacterium tuberculosis H37Rv, potency (AID 1949).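 Also: bacteria grown 7 days with compound before Alamar blue readout.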

The structures appear in SMILES notation. Converted amounts (≈) assume the structure as drawn. Results filed as inconclusive are left out. The source made the active and inactive calls. No rule for the calls is given here. Some results are limits rather than exact numbers.

Consider `COc1cc(Br)cc2cc(C(=O)Nc3cc(C(F)(F)F)ccc3Cl)c(=O)oc12`, for which the IC50 (in general, the concentration that gives 50% inhibition) is > 50 µg/mL (inactive).

Consider `CCC(=O)Oc1cccc2ccc(/C=C/c3ccc4c(c3)OCO4)nc12`, for which the IC50 is 0.17 µg/mL (≈ 0.489 µM).

For `COc1ccc2c(c1)CC1=C2CCC2(C)C1=CCC2OC(C)=O` (stereo not given), the IC50 was 21.6 µg/mL (≈ 69.8 µM).

For the compound `Cn1c2c(c(=O)n(C)c1=O)C(C(F)(F)F)(C(F)(F)F)N=C(c1ccc(Cl)cc1)N2`, the IC50 is 46.1 µg/mL (≈ 105 µM).

Turning to `Cc1ccc(NC(=S)c2ccccn2)c(C)c1`, the IC50 was 4.22 µg/mL (≈ 17.4 µM).

For `N#Cc1cc2c(ccc3ccccc32)oc1=O`, the IC50 was 2.12 µg/mL (≈ 9.58 µM).

On to `COc1cccc(CSc2nc3c(c(-c4ccccc4)c2C#N)CN(C)CC3)c1`, for which the IC50 is 22.8 µg/mL (≈ 56.9 µM).

Regarding `COc1ccc2[nH]cc(CCNC(=S)Nc3ccc(Nc4ccccc4)cc3)c2c1`, the IC50 was 2.9 µg/mL (≈ 6.96 µM).

For the compound `CCCCNCCOCCOc1ccc(Cl)cc1C(C)(C)C`, the IC50 is 4.33 µg/mL (≈ 13.2 µM).

As for `O=C(Nc1ccccc1Cl)c1cc2cc(Cl)cc(Cl)c2oc1=O`, the IC50 is > 50 µg/mL (inactive).

Take `Cc1cc2ncn(Cc3ccccc3C)c2cc1C`: the IC50 was 11.1 µg/mL (≈ 44.4 µM).

Take `COc1ccc2c(c1)c(=O)oc1cc(OC(C)C(=O)c3ccccc3)ccc12` (stereo not given): the IC50 is 2.84 µg/mL (≈ 7.59 µM).

Consider `COc1ccc(Cl)cc1C(=O)Nc1ccc(N2CCN(Cc3ccccc3F)CC2)cc1`, for which the IC50 was 3.36 µg/mL (≈ 7.4 µM).

As to `Cc1ccccc1/C=C/c1ccc2cccc(O)c2n1`, the IC50 is below 0.1 µg/mL.

`CCN(CC)c1ccc(NC(=O)C(C)Oc2cccc(Cl)c2)cc1` (stereo not given): the IC50 is 6.4 µg/mL (≈ 18.5 µM).

Take `CCOc1ccc(C(=O)NC23CC4CC(CC(C4)C2)C3)cc1[N+](=O)[O-]`: the IC50 was > 50 µg/mL (inactive).

For the compound `CC(C)CN1C(=O)c2cccc3c([N+](=O)[O-])ccc(c23)C1=O`, the IC50 is > 50 µg/mL (inactive).

Regarding `O=C(CCSc1nnc(-c2ccccc2)o1)Nc1ccc(F)cc1`, the 50% inhibitory concentration (IC50) was 5.2 µg/mL (≈ 15.1 µM).

Turning to `COc1ccc(CNc2ccc3c(c2)ncn3-c2ccccc2)cc1OC`, the IC50 is 8.63 µg/mL (≈ 24 µM).

As to `CC1CCc2c(sc3nc4c5ccccc5c(N5CCN(CCO)CC5)nn4c(=O)c23)C1` (stereo not given), the IC50 is 4.86 µg/mL (≈ 10.8 µM).

Regarding `CCOC(=O)c1c2c(n(C)c1CN(CC)CC)C(=O)C(=O)c1ccc(Br)cc1-2`, the IC50 was 0.17 µg/mL (≈ 0.38 µM).

Regarding `COc1ccc(N/C(N)=N/c2nc(-c3cccs3)cc(C(F)(F)F)n2)cc1`, the IC50 is > 50 µg/mL (inactive).

As to `N#Cc1c(C(F)(F)F)cc(-c2cccnc2)nc1SCC(=O)N1CCc2ccccc2C1`, the IC50 is > 50 µg/mL (inactive).

With `COc1ccc(-c2cc(C(=O)N/N=C/C=C/c3ccccc3OC)[nH]n2)cc1`, the IC50 was below 0.1 µg/mL.

Turning to `COC(=O)c1ccc(OC(=O)c2c(F)c(F)c(F)c(F)c2F)cc1`, the IC50 is 9.14 µg/mL (≈ 26.4 µM).

Regarding `Oc1ccccc1-c1n[nH]c(/C=C/c2ccc(Cl)cc2)n1`, the IC50 was 2.73 µg/mL (≈ 9.17 µM).

As for `Cc1cc(Br)c2[nH]c(O)c(N=NC(=O)COc3ccc(C(C)(C)C)cc3C)c2c1`, the IC50 is 27 µg/mL (≈ 59 µM).

With `CCN(CC)CCNc1nc(-c2cccc(Cl)c2)nc2ccccc12`, the IC50 was 46 µg/mL (≈ 130 µM).

Consider `O=C(/C=C/c1cc([N+](=O)[O-])ccc1O)c1ccc(Cl)cc1`, for which the IC50 is 1.24 µg/mL (≈ 4.08 µM).

As to `COc1cccc(OCCN2CCN(c3ncnc4sc5c(c34)CCCC5)CC2)c1`, the IC50 is 29 µg/mL (≈ 68.2 µM).

Take `CC(C)COc1ccc(-c2nn(-c3ccccc3)cc2C(=O)Nc2nccs2)cc1`: the IC50 is 0.19 µg/mL (≈ 0.454 µM).

Take `Clc1ccc(OCc2ccccc2Cl)c(CNC2CCCCC2)c1`: the 50% inhibitory concentration (IC50) is 2.51 µg/mL (≈ 6.89 µM).

As to `Cc1ccc(Cl)c(OCC(O)Cn2cnc3cc(C)c(C)cc32)c1` (stereo not given), the IC50 is 8.12 µg/mL (≈ 23.5 µM).

In the case of `COc1cc(CNC23CC4CC(CC(C4)C2)C3)ccc1OCc1ccccc1`, the IC50 is > 50 µg/mL (inactive).

For the compound `O=C(CCNc1cccc(F)c1)c1ccccc1`, the IC50 was 8.2 µg/mL (≈ 33.7 µM).

As for `O=S(=O)(Nc1cccc2cccnc12)c1ccc(Br)cc1`, the IC50 is 0.4 µg/mL (≈ 1.1 µM).

Consider `COc1ccccc1C(=O)NNC(=S)NC(=O)C1CCCCC1`, for which the IC50 was 3.02 µg/mL (≈ 9 µM).

Turning to `Brc1ccc(-c2nn(-c3ccccc3)cc2CNCc2ccccc2)cc1`, the IC50 is 1.24 µg/mL (≈ 2.96 µM).

On to `OCc1nc2ccccc2n1CC(O)COc1ccc(OCc2ccccc2)cc1` (stereo not given), for which the IC50 is 4.83 µg/mL (≈ 11.9 µM).

Regarding `Cc1cc(C)nc(/N=C(/N)Nc2ccc(OCc3ccccc3)cc2)n1`, the IC50 is 4.64 µg/mL (≈ 13.4 µM).

Regarding `CCCn1c(NCc2ccc(Br)cc2)nc2ccccc21`, the IC50 is 4.3 µg/mL (≈ 12.5 µM).

Consider `COc1ccc2nc(Nc3nc(C)c(C)c(=O)[nH]3)nc(C)c2c1`, for which the IC50 was > 50 µg/mL (inactive).

Consider `COc1ccc(OCC(=O)Nc2cccc(Cl)c2)cc1`, for which the IC50 was 2.78 µg/mL (≈ 9.53 µM).

With `NC(=O)CSc1nnc(SCc2ccc(F)cc2)s1`, the IC50 is 9.02 µg/mL (≈ 28.6 µM).

`O=C(CCN1C(=O)c2ccccc2C1=O)Oc1cccc2cccnc12`: the IC50 was 2.78 µg/mL (≈ 8.03 µM).

Consider `Cc1cc(Nc2ccc(Cl)cc2)nc(NCc2ccccc2)n1`, for which the IC50 was 1.34 µg/mL (≈ 4.13 µM).

Consider `O=C1c2cccc3cccc(c23)C(=O)N1CCN1CCN(CCc2ccccc2)CC1`, for which the IC50 was 23.8 µg/mL (≈ 57.5 µM).

For the compound `O=C1c2ccccc2C(=O)c2c1nc1n2CCCC1`, the IC50 is > 50 µg/mL (inactive).

As to `COc1ccc(-c2nc(NC(=O)c3ccccc3)n[nH]2)cc1OC`, the IC50 was 1.5 µg/mL (≈ 4.62 µM).

`C=CCn1c(NCc2cccc3ccccc23)nc2ccccc21`: the IC50 is 3.16 µg/mL (≈ 10.1 µM).
